From US20170198359A1, “METHODS AND COMPOSITIONS FOR TREATMENT OR DIAGNOSIS OF CANCERS RELATED TO GABRA3” (The Wistar Institute of Anatomy and Biology, priority 2016, published 2017)
Entries after “also recorded” stand apart in the source; their conditions may differ.

How the values were obtained:
MDA-MB-436 cells [1] = test: Boyden chamber invasion assay, MDA-MB-436 cells with GABRA3 inhibitors; format: cell-based, human; conditions: various concentrations (10 nM-10 μM), FIG. 12
Experimental: (§1) MDA-MB-436 cells were treated with GABRA3 inhibitors picrotoxin or flumazenil at various concentrations (10 nM-10 μM). Cells were then subjected to Boyden chamber assays (see, e.g., Ostrander et al, Cancer Res May 1, 2007 67; 4199, which is incorporated herein by reference).

MDA-MB-436 cells [2] = test: Boyden chamber migration assay, MDA-MB-436 cells with GABRA3 inhibitors; format: cell-based, human; conditions: various concentrations (10 nM-10 μM), FIG. 12
Experimental: as §1

[3] = tested on: MCF7 cells stably expressing GABRA3; test: Matrigel invasion assay, MCF7-GABRA3 cells with AKT inhibitor; format: cell-based, human; conditions: different concentrations of the inhibitor vs control DMSO, FIG. 11B
Experimental: (§2) In vitro cell migration assays were performed as described previously (21, 22) using Trans-well chambers ([…] pore size; Costar). Cells were allowed to grow to subconfluency (˜75-80%) and were serum-starved for 24 h. After detachment with trypsin, cells were washed with PBS, resuspended in serum-free medium and 250 μl cell suspensions (2×10^5 cells ml−1) was added to the upper chamber. Complete medium was added to the bottom wells of the chambers. The cells that had not migrated were removed from the upper face of the filters using cotton swabs, and the cells that had migrated to the lower face of the filters were fixed with 5% glutaraldehyde solution and stained with 0.5% solution of Toluidine Blue in 2% sodium carbonate. Images of three random ×10 fields were captured from each membrane and the number of migratory cells was counted. […]
(§3) It has previously been shown that A-to-I edited GABRA3 affected the intracellular trafficking of GABRA3 (18), which is critical for the localization of GABRA3 on cell membrane. We determined the expression of GABRA3 on cell surface of breast cancer cells using FACS analysis. […] Since AKT pathway is critical in both breast cancer metastasis and therapy resistance (27-29), we determined the effect of GABRA3 on AKT activation and whether AKT pathway mediates GABRA3 functions in migration and invasion. […]

[4] = tested on: MCF7 cells stably expressing GABRA3; test: Transwell migration assay, MCF7-GABRA3 cells with AKT inhibitor; format: cell-based, human; conditions: different concentrations of the inhibitor vs control DMSO, FIG. 11A
Experimental: as §2, §3

melanoma = melanoma treatment, clinical trials; cited from earlier work

Row | Compound | cell invasion (MDA-MB-436 cells [1]) | cell migration (MDA-MB-436 cells [2]) | cell invasion [3] | cell migration [4] | anti-tumor activity (melanoma)
1 | CCOC(=O)c1ncn2c1CN(C)C(=O)c1cc(F)ccc1-2 [flumazenil] | suppress | suppress | – | – | –
2 | NC1(c2ccc(-c3nc4ccn5c(=O)[nH]nc5c4cc3-c3ccccc3)cc2)CCC1 [MK-2206] | – | – | inhibited cell migration and invasion in a dose-dependent manner; also recorded: suppressed | inhibited cell migration and invasion in a dose-dependent manner; also recorded: suppressed | –
3 | Nc1nc2ccc(OC(F)(F)F)cc2s1 [Riluzole] | – | – | – | – | significant anti-tumor activity
4 | picrotoxin | suppress | suppress | – | – | –
